# Source: PMC5596366, “Cytotoxicity and genotoxicity of stilbene derivatives in CHO-K1 and HepG2 cell lines” (Genetics and Molecular Biology, 2017)
# Entries after “also recorded” stand apart in the source; their conditions may differ.
# Experiments:
# [1] = Cell viability assay (XTT), 24 h treatment; assay type: cell-based
# Experimental: (§1) CHO-K1 and HepG2 cells were obtained from the Cell Bank of Rio de Janeiro (BCRJ code 0069 and 0103, respectively) and cultured in complete medium containing DMEM+F10 nutrient mixture (1:1, v/v), supplemented with fetal bovine serum (10%, v/v) and penicillin/streptomycin stabilized solution (10 mL/L). Cell cultures were incubated at 37 °C with atmosphere saturated with 5% of CO2. All experiments were conducted between the 3rd and the 8th passages and three experimental repetitions were performed.
# (§2) Doxorubicin (DOX) was dissolved in ultrapure sterile water in a stock solution of 900 μM. All reagents were dissolved prior to use and protected from light. For all experiments, cells were submitted to 24 h treatment with different concentrations of the tested substance and DOX was used as positive control in CHO-K1 cells. Benzo(a)pyrene [B(a)P] at 25 μM was used as positive control in HepG2 cells.
# To determine cell viability, 10^4 cells/well were seeded on a 96-well plate. […] The plates were washed twice in phosphate buffer saline (PBS 1X) and incubated for 4 h at 37 °C with DMEM without phenol red and supplemented with the reagents of the Cell Proliferation Kit (XTT) as recommended by the manufacturer. Total absorbance was measured at 492 and 690 nm (reference) using a microplate reader (ASYS, Eugendorf, Salzburg, Austria).
# Colo 205 xenograft = test system: Colo 205 xenograft; parameters: method as in Pan et al., 2008; details: Colo 205 xenograft model of colon cancer; ref Pan et al., 2008; cited from earlier work
# CHO-K1 cells [2] = experiment: Cytokinesis-block micronucleus assay (CBMN); assay type: cell-based; details: for mean micronucleus (MN) frequency: 24 h
# Experimental: as §1, §2
# (§3) For the micronucleus test, 10^6 cells were seeded in […] culture flasks containing complete medium. Cell cultures were allowed to grow for 24 h, then treated with different concentrations of the stilbene derivatives. Simultaneously, cytochalasin B (6 μg/mL) was added to each cell culture to inhibit cytokinesis. After 24 h of incubation, cells were harvested with a hypotonic treatment (KCl 0.075 M) and fixed twice with methanol:acetic acid (3:1). Thereafter, the cell suspension was smeared on pre-cleaned microscope slides and air-dried. Staining was performed during 15 min with Giemsa at 5% in Sorensen Buffer (v/v). Microscope slides were washed in tap water and allowed to dry at room temperature overnight. The frequency of micronucleus (MN), frequency of binucleated cells with micronucleus (BCMN) and frequency of nucleoplasmic bridges (NB) were obtained by the analysis of 1000 binucleated cell/culture/treatment as previously described by [Fenech (2000)]. A total of 500 cells/culture/treatment were analyzed to determine the Nuclear Division Index (NDI) by scoring cells with 1, 2, 3 or 4 nuclei and using the formula: NDI= M1+2(M2)+3(M3)+4(M4)/N, where, M1–M4 stand for the number of cells with 1–4 nuclei and N is the total number of viable cells analyzed.
# HepG2 cells [3] = experiment: Cytokinesis-block micronucleus assay (CBMN); assay type: cell-based; details: for nuclear bridges (NB): HepG2; for mean micronucleus (MN) frequency: 24 h
# Experimental: as §1, §2, §3
# [4] = parameters: method as in Paul et al. (2010); details: in vivo; ref Paul et al. (2010); cited from earlier work
# CHO-K1 cells [5] = experiment: Clonogenic survival assay; assay type: cell-based; details: for survival fraction: 24 h treatment
# Experimental: as §1, §2
# (§4) The clonogenic assay was performed according to [Franken et al. (2006)]. Briefly, 200 cells/well were plated in 6 well plates containing 3 mL of complete medium. After 4 h of incubation at 37 °C, the cells were treated with different concentrations of the testing stilbenes for 24 h, then each well was washed with PBS 1X and complete medium was added. The cells were allowed to grow for 7–14 days at 37 °C and 5% of CO2, when colonies were visible. The colonies formed were fixed with methanol/acetic acid/water (1:1:8 v/v/v) and stained with Giemsa 5% (v/v) in Sorensen phosphate buffer (pH 6.8). The colonies were counted, and the cell survival fraction was calculated as percent colonies relative to the untreated control.
# HepG2 cells [6] = experiment: Clonogenic survival assay; assay type: cell-based; details: for survival fraction: 24 h treatment
# Experimental: as §1, §2, §4
# Caco-2 cells = test system: Caco-2 cells; parameters: method as in Schneider et al. (2003); details: ref Schneider et al. (2003); cited from earlier work
# HT-29 xenografts = test system: HT-29 xenografts; parameters: method as in Paul et al. (2010); details: HT-29 xenografts model of colon cancer; ref Paul et al. (2010); cited from earlier work
# [7] = test system: CHO-K1 and HepG2 cell lines; experiment: Clonogenic survival assay, statements not split by cell line; details: based on clonogenic survival assay
# Experimental: as §1, §2
# as §4, with “The cells were allowed to grow for 7–14 days at 37 °C and 5% of CO2, when colonies were visible. The colonies formed were fixed with methanol/acetic acid/water (1:1:8 v/v/v) and stained with Giemsa 5% (v/v) in Sorensen phosphate buffer (pH 6.8).” left out
# tubulin = test system: tubulin; parameters: method as in Schneider et al. (2003); details: ref Schneider et al. (2003); cited from earlier work
# [8] = test system: colonic aberrant crypt foci (ACF); parameters: method as in Suh et al., 2007; details: ref Suh et al., 2007; cited from earlier work
# [9] = test system: colon and intestinal tumors; parameters: method as in Schneider et al., 2001; details: Min mice; ref Schneider et al., 2001; cited from earlier work
# [10] = Chinese hamster, CHO-K1, 7.8 μM (lowest concentration)
# [11] = human, HepG2, 7.8 μM (lowest concentration)
compound,measurement,setting,value
"COc1ccc(/C=C/c2cc(OC)cc(OC)c2)cc1 [trans-TMS, (E)-1,3-dimethoxy-5-(4-methoxystyryl)benzene]","viability at 24 h, 7.8 µM",[1]; [10],62.5%
same,"viability at 24 h, 7.8 µM",[1]; [11],59.1%
same,tumor growth,Colo 205 xenograft,significantly reduced tumor growth
same,"micronucleus (MN) frequency, result in words","CHO-K1 cells [2]; CHO-K1, all concentrations, compared to NC",no significant MN frequency
same,nuclear bridges (NB),HepG2 cells [3],No significant induction
same,"micronucleus (MN) frequency, result in words","HepG2 cells [3]; HepG2, all tested concentrations",significantly increased
same,serum levels,[4],much higher serum levels than the cis-TMS
same,concentration from which colony formation is significantly reduced,CHO-K1 cells [5]; CHO-K1 (stated for both cell lines),5 µM
same,"frequency of survival fraction, result in words","CHO-K1 cells [5]; CHO-K1, 2.5-20 μM",significant concentration-dependent reduction
same,concentration from which colony formation is significantly reduced,HepG2 cells [6]; HepG2 (stated for both cell lines),5 µM
same,"frequency of survival fraction, result in words","HepG2 cells [6]; HepG2, 2.5-20 μM",significant concentration-dependent reduction
same,fold less effective in inhibiting the growth of Caco-2 cells than the cis isomer,Caco-2 cells,100 fold
same,"effect on tumor (volume, weight) in vivo",HT-29 xenografts,significantly reduced tumor volume; also recorded: significantly decreased tumor volume and weight
"COc1ccc(/C=C\c2cc(OC)cc(OC)c2)cc1 [cis-TMS, (Z)-1,3-dimethoxy-5-(4-methoxystyryl)benzene]",fold more cytotoxic than the amino and ester,[7],approximately 250 fold
same,fold more cytotoxic than trans-TMS,[7],128 fold
same,"viability at 24 h, 7.8 µM",[1]; [10],60.7%
same,"viability at 24 h, 7.8 µM",[1]; [11],49%
same,mean micronucleus (MN) frequency,"CHO-K1 cells [2]; CHO-K1, 0.125 μM",2.8 MN/100 cells
same,mean micronucleus (MN) frequency,"CHO-K1 cells [2]; CHO-K1, 0.5 μM",5.2 MN/100 cells
same,nuclear bridges (NB),HepG2 cells [3],No significant induction
same,mean micronucleus (MN) frequency,"HepG2 cells [3]; HepG2, 0.125 μM",3.5 MN/100 cells
same,mean micronucleus (MN) frequency,"HepG2 cells [3]; HepG2, 0.5 μM",6.1 MN/100 cells
same,bioavailability,[4],low bioavailability
same,survival fraction,"CHO-K1 cells [5]; CHO-K1, 0.078 μM",45.8%
same,survival fraction,"CHO-K1 cells [5]; CHO-K1, 0.156 μM",36.8%
same,survival fraction,"CHO-K1 cells [5]; CHO-K1, 0.3125 μM",13.9%
same,cells killed (clonogenic assay),"CHO-K1 cells [5]; CHO-K1, all concentrations tested (2.5 μM upwards)",100%
same,survival fraction,"HepG2 cells [6]; HepG2, 0.078 μM",41.3%
same,survival fraction,"HepG2 cells [6]; HepG2, 0.156 μM",54.3%
same,survival fraction,"HepG2 cells [6]; HepG2, 0.3125 μM",16.9%
same,survival fraction,"HepG2 cells [6]; HepG2, 0.625 μM",6.2%
same,cells killed (clonogenic assay),"HepG2 cells [6]; HepG2, at 2.5, 5 and 10 μM",100%
same,tubulin polymerization,tubulin,inhibited tubulin polymerization in a dose-dependent manner
same,cell cycle effect in Caco-2 cells,Caco-2 cells,arrest of the cell cycle progression at the G2/M transition phase
same,"effect on tumor (volume, weight) in vivo",HT-29 xenografts,not active in vivo
COc1cc(/C=C/c2ccc(O)cc2)cc(OC)c1 [pterostilbene],formation of azoxymethane-induced colonic aberrant crypt foci (ACF),[8],reduced the formation
Oc1ccc(/C=C/c2cc(O)cc(O)c2)cc1 [Resveratrol],prevention of formation of colon and intestinal tumors,[9],70%
